Experimental data: patent publication US8580829B2 (Boehringer Ingelheim International GmbH, priority 2010, dated 2013)

What was measured:
[1] = target: T1, recombinant human FLAP protein (Homo sapiens, UniProt P20292); experiment: FLAP binding assay (Scintillation Proximity Assay, displacement of [125I]L-691,831); conditions: recombinant human FLAP membranes, [125I]L-691,831 probe; read-out: FLAP SPA IC50
T1 construct: made in house; host or cells: Sf9 insect cells (100,000 x g membrane fraction)
T1 sequence (P20292 1-161): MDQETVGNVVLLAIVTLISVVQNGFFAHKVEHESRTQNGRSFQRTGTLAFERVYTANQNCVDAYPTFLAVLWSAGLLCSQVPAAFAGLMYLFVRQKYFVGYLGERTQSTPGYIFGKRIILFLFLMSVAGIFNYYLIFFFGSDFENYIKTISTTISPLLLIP
Method: Cell pellets produced from sf9 insect cells expressing recombinant human FLAP protein are resuspended in buffer A [15 mM Tris-HCl (pH 7.5), 2 mM MgCl2, 0.3 mM EDTA, 1 mM PMSF]. The cells are lysed with a Dounce homogenizer and the material is centrifuged at 10,000×g for 10 minutes. The supernatant is then collected and centrifuged at 100,000×g for 60 minutes. To prepare membrane protein for an assay, an aliquot of the 100,000×g pellet is resuspended in 1 ml of buffer A, Dounce homogenized, and finally subjected to polytron mixing (30 seconds). Membrane protein (25 μl, 5 μg) is mixed with WGA SPA beads (Amersham) and stirred for 1 h.

[2] = system: synthesis of LTB4 in human whole blood; experiment: human whole blood LTB4 production inhibition assay; assay type: cell-based; conditions: Homo sapiens, heparinized human whole blood, calcimycin 20 μM; read-out: hWB LTB4 IC50
Method: Compounds are additionally tested in a human whole blood assay to determine their ability to inhibit the synthesis of LTB4 in a cellular system. Compounds are combined with heparinized human whole blood and incubated for 15 minutes at 37° C. Calcimycin (20 μM final, prepared in phosphate-buffered saline, pH 7.4) is then added and the mixture is incubated for another 30 minutes at 37° C. The samples are centrifuged for 5 min at low speed (1500×g) and the plasma layer is removed. Plasma LTB4 concentrations are then measured using an antibody-based homogenous time-resolved fluorescence method (CisBio, Bedford, Mass.).

| SMILES | IC50 [1] | IC50 [2] |
| --- | --- | --- |
| COCCNc1cnc(-c2nc(C3(c4ccc(-c5cnc(N)nc5)cc4)CCC3)no2)cn1 [Example 62, 5-[4-(1-{5-[5-(2-Methoxy-ethylamino)-pyrazin-2-yl]-1,2,4-oxadiazol-3-yl}-cyclobutyl)-phenyl]-pyrimidin-2-ylamine] | 1.3 nM | 13 nM |
| Nc1ncc(-c2ccc(C3(c4noc(-c5ccc(C(=O)N6CC(O)C6)nc5)n4)CCC3)cc2)cn1 [Example 64, [5-(3-{1-[4-(2-Amino-pyrimidin-5-yl)-phenyl]-cyclobutyl}-1,2,4-oxadiazol-5-yl)-pyridin-2-yl]-(3-hydroxy-azetidin-1-yl)-methanone] | 7.7 nM | 310 nM |
| CCn1cccc(-c2nc(C3(c4ccc(-c5cnc(N)nc5)cc4)CCC3)no2)c1=O [Example 65, 3-(3-{1-[4-(2-Amino-pyrimidin-5-yl)-phenyl]-cyclobutyl}-1,2,4-oxadiazol-5-yl)-1-ethyl-1H-pyridin-2-one] | 5.9 nM | 97 nM |
| COCCn1cccc(-c2nc(C3(c4ccc(-c5cnc(N)nc5)cc4)CCC3)no2)c1=O [Example 66, 3-(3-{1-[4-(2-Amino-pyrimidin-5-yl)-phenyl]-cyclobutyl}-1,2,4-oxadiazol-5-yl)-1-(2-methoxy-ethyl)-1H-pyridin-2-one] | 8.4 nM | 120 nM |
| Nc1ncc(-c2ccc(C3(c4noc(-c5cccn(CCO)c5=O)n4)CCC3)cc2)cn1 [Example 67, 3-(3-{1-[4-(2-Amino-pyrimidin-5-yl)-phenyl]-cyclobutyl}-1,2,4-oxadiazol-5-yl)-1-(2-hydroxy-ethyl)-1H-pyridin-2-one] | 12 nM | 290 nM |
| Nc1ncc(-c2ccc(C3(c4noc(-c5cnc(NCCO)cn5)n4)CCC3)cc2)cn1 [Example 68, 2-[5-(3-{1-[4-(2-Amino-pyrimidin-5-yl)-phenyl]-cyclobutyl}-1,2,4-oxadiazol-5-yl)-pyrazin-2-ylamino]-ethanol] | 1.1 nM | 130 nM |
| Nc1ncc(-c2ccc(C3(c4noc(-c5cnn6cccnc56)n4)CCC3)cc2)cn1 [Example 72, 5-{4-[1-(5-Pyrazolo[1,5-a]pyrimidin-3-yl-1,2,4-oxadiazol-3-yl)-cyclobutyl]-phenyl}-pyrimidin-2-ylamine] | 1.9 nM | 18 nM |
| Nc1ncc(-c2ccc(C3(c4noc(-c5ccc6nccn6c5)n4)CCC3)cc2)cn1 [Example 73, 5-{4-[1-(5-Imidazo[1,2-a]pyridin-6-yl-1,2,4-oxadiazol-3-yl)-cyclobutyl]-phenyl}-pyrimidin-2-ylamine] | 6.8 nM | 450 nM |
| Nc1ncc(-c2ccc(C3(c4noc(NCCO)n4)CCC3)cc2)cn1 [Example 74, 2-(3-{1-[4-(2-amino-pyrimidin-5-yl)-phenyl]-cyclobutyl}-1,2,4-oxadiazol-5-ylamino)-ethanol] | 71 nM | 520 nM |
| Nc1ncc(-c2ccc(C3(c4noc(-c5ccc(C(=O)N6CCC(F)(F)C6)nc5)n4)CCC3)cc2)cn1 [Example 75, [5-(3-{1-[4-(2-Amino-pyrimidin-5-yl)-phenyl]-cyclobutyl}-1,2,4-oxadiazol-5-yl)-pyridin-2-yl]-(3,3-difluoro-pyrrolidin-1-yl)-methanone] | 3.5 nM | 190 nM |
| Nc1ncc(-c2ccc(C3(c4noc(N5CCCCC5)n4)CCC3)cc2)cn1 [Example 80, 5-{4-[1-(5-Piperidin-1-yl-1,2,4-oxadiazol-3-yl)-cyclobutyl]-phenyl}-pyrimidin-2-ylamine] | 6.5 nM | 390 nM |
| Nc1ncc(-c2ccc(C3(c4noc(-c5cnc(N6CCOCC6)cn5)n4)CCC3)cc2)cn1 [Example 85, 5-(4-{1-[5-(5-Morpholin-4-yl-pyrazin-2-yl)-1,2,4-oxadiazol-3-yl]-cyclobutyl}-phenyl)-pyrimidin-2-ylamine] | 1.3 nM | 71 nM |
| Nc1ncc(-c2ccc(C3(c4noc(-c5cnc(N6CC(O)C6)cn5)n4)CCC3)cc2)cn1 [Example 86, 1-[5-(3-{1-[4-(2-Amino-pyrimidin-5-yl)-phenyl]-cyclobutyl}-1,2,4-oxadiazol-5-yl)-pyrazin-2-yl]-azetidin-3-ol] | 1.2 nM | 79 nM |
| COC(=O)C(C)(C)Nc1cnc(-c2nc(C3(c4ccc(-c5cnc(N)nc5)cc4)CCC3)no2)cn1 [Example 90, 2-[5-(3-{1-[4-(2-Amino-pyrimidin-5-yl)-phenyl]-cyclobutyl}-1,2,4-oxadiazol-5-yl)-pyrazin-2-ylamino]-2-methyl-propionic acid methyl ester] | 3.4 nM | 210 nM |

Continued, values first:

| IC50 [1] | IC50 [2] | SMILES |
| --- | --- | --- |
| 1 nM | 25 nM | CCNc1cnc(-c2nc(C3(c4ccc(-c5cnc(N)nc5)cc4)CCC3)no2)cn1 [Example 63, 5-(4-{1-[5-(5-Ethylamino-pyrazin-2-yl)-1,2,4-oxadiazol-3-yl]-cyclobutyl}-phenyl)-pyrimidin-2-ylamine] |
| 3 nM | 220 nM | Nc1ncc(-c2ccc(C3(c4noc(-c5ccc(C(=O)N6CCC6)nc5)n4)CCC3)cc2)cn1 [Example 70, [5-(3-{1-[4-(2-Amino-pyrimidin-5-yl)-phenyl]-cyclobutyl}-1,2,4-oxadiazol-5-yl)-pyridin-2-yl]-azetidin-1-yl-methanone] |
| 2.4 nM | 200 nM | Nc1ncc(-c2ccc(C3(c4noc(-c5cscn5)n4)CCC3)cc2)cn1 [Example 71] |
| 3.9 nM | 190 nM | COCCNC(=O)c1ccc(-c2nc(C3(c4ccc(-c5cnc(N)nc5)cc4)CCC3)no2)cn1 [Example 76, 5-(3-{1-[4-(2-Amino-pyrimidin-5-yl)-phenyl]-cyclobutyl}-1,2,4-oxadiazol-5-yl)-pyridine-2-carboxylic acid (2-methoxy-ethyl)-amide] |
| 2.6 nM | 160 nM | Nc1ncc(-c2ccc(C3(c4noc(-c5ccc(C(=O)NCCO)nc5)n4)CCC3)cc2)cn1 [Example 77, 5-(3-{1-[4-(2-Amino-pyrimidin-5-yl)-phenyl]-cyclobutyl}-1,2,4-oxadiazol-5-yl)-pyridine-2-carboxylic acid (2-hydroxy-ethyl)-amide] |
| 8.8 nM | 160 nM | CN(CCO)C(=O)c1ccc(-c2nc(C3(c4ccc(-c5cnc(N)nc5)cc4)CCC3)no2)cn1 [Example 78, 5-(3-{1-[4-(2-Amino-pyrimidin-5-yl)-phenyl]-cyclobutyl}-1,2,4-oxadiazol-5-yl)-pyridine-2-carboxylic acid (2-hydroxy-ethyl)-methyl-amide] |
| 6.4 nM | 130 nM | CNC(=O)Cn1cc(-c2nc(C3(c4ccc(-c5cnc(N)nc5)cc4)CCC3)no2)cn1 [Example 81, 2-[4-(3-{1-[4-(2-Amino-pyrimidin-5-yl)-phenyl]-cyclobutyl}-1,2,4-oxadiazol-5-yl)-pyrazol-1-yl]-N-methyl-acetamide] |
| 3.1 nM | 99 nM | CC(CO)n1cc(-c2nc(C3(c4ccc(-c5cnc(N)nc5)cc4)CCC3)no2)cn1 (centres unmarked) [Example 82, 2-[4-(3-{1-[4-(2-Amino-pyrimidin-5-yl)-phenyl]-cyclobutyl}-1,2,4-oxadiazol-5-yl)-pyrazol-1-yl]-propan-1-ol] |
| 4 nM | 110 nM | CC(O)Cn1cc(-c2nc(C3(c4ccc(-c5cnc(N)nc5)cc4)CCC3)no2)cn1 (centres unmarked) [Example 83, 1-[4-(3-{1-[4-(2-Amino-pyrimidin-5-yl)-phenyl]-cyclobutyl}-1,2,4-oxadiazol-5-yl)-pyrazol-1-yl]-propan-2-ol] |
| 4 nM | 160 nM | CC(C)(CO)n1cc(-c2nc(C3(c4ccc(-c5cnc(N)nc5)cc4)CCC3)no2)cn1 [Example 84, 2-[4-(3-{1-[4-(2-Amino-pyrimidin-5-yl)-phenyl]-cyclobutyl}-1,2,4-oxadiazol-5-yl)-pyrazol-1-yl]-2-methyl-propan-1-ol] |
| 4.5 nM | 150 nM | CCn1cnc(-c2nc(C3(c4ccc(-c5cnc(N)nc5)cc4)CCC3)no2)c1 [Example 87, 5-(4-{1-[5-(1-Ethyl-1H-imidazol-4-yl)-1,2,4-oxadiazol-3-yl]-cyclobutyl}-phenyl)-pyrimidin-2-ylamine] |
| 6.3 nM | 160 nM | COCCn1cnc(-c2nc(C3(c4ccc(-c5cnc(N)nc5)cc4)CCC3)no2)c1 [Example 88, 5-[4-(1-{5-[1-(2-Methoxy-ethyl)-1H-imidazol-4-yl]-1,2,4-oxadiazol-3-yl}-cyclobutyl)-phenyl]-pyrimidin-2-ylamine] |
| 3.7 nM | 151 nM | Nc1ncc(-c2ccc(C3(c4noc(-c5ccc(=O)[nH]c5)n4)CCC3)cc2)cn1 [Example 91, 5-(3-{1-[4-(2-Amino-pyrimidin-5-yl)-phenyl]-cyclobutyl}-1,2,4-oxadiazol-5-yl)-1H-pyridin-2-one] |
| 4.9 nM | 150 nM | Cn1ccc(-c2nc(C3(c4ccc(-c5cnc(N)nc5)cc4)CCC3)no2)n1 [Example 92, 5-(4-{1-[5-(1-Methyl-1I-pyrazol-3-yl)-1,2,4-oxadiazol-3-yl]-cyclobutyl}-phenyl)-pyrimidin-2-ylamine] |
